Experimental data taken from patent US5277897A, “In vivo enhancement of cellular accumulation of lipophilic cationic organometallic compounds by reduction of intramembrane potential” (Brigham and Women's Hospital, priority 1992, dated 1994).

Tests used:
[1] = system: cultured chick heart cells; test: Influence of TPB and CCCP on (membrane potential-independent) accumulation of Tc-MIBI (FIG. 4); type: cell-based; conditions: n=3-4
Protocol: FIG. 4. […] Preparations were incubated for the times indicated in 5.4 mM Ko control loading buffer containing tracer Tc-MIBI and TPB together (Δ) or in loading buffer containing Tc-MIBI alone (.quadrature.). For the latter incubation, TPB was added to the loading buffer at the arrow and cell content of Tc-MIBI subsequently determined (o). Under each condition, CCCP was added to the loading buffers as indicated by the arrows and cell content of Tc-MIBI determined ( , , ·). Each point is the mean ±SEM of 3 determinations.
Monolayers of spontaneously contractile chick ventricular myocardial cells were obtained from disaggregated 10-day old chick embryo hearts by a slight modification of previously published methods (Horres, C. R., et al., In Pinson, A. (ed.), The Heart Cell in Culture, Boca Raton, CRC Press, pp. 77-108 (1987)). Hearts were trimmed of connective tissue and atria, finely minced and serially exposed to 0.024% (w/v) trypsin in Ca^2+ - and Mg^2+ - free Earle's salt solution for 7 minutes at 37° C. Gentle trituration and agitation on an orbital shaker bath aided disaggregation. Cells released from the first exposure were discarded and cells aspirated from the next four exposures were then added to an equal volume of trypsin deactivating solution consisting of ice-cold culture medium. Cells were centrifuged at 400 g for 10 minutes, resuspended and combined in culture medium, counted with a hemocytometer and diluted to yield a suspension of 5×10^5 cells/ml. 12 ml of suspension were incubated in 100 mm plastic culture dishes containing 7 coverslips (25 mm diameter) placed on the bottom of each dish to serve as substrate for cell growth. Cells were maintained in a humidified atmosphere of 5% CO2 /95% air for 3-4 days yielding a confluent layer of spontaneously contractile myocytes on each coverslip.
Radioactive uptake methods have been described in detail (Piwnica-Worms, D., et al, Circ. (in press). Briefly, coverslips with confluent cells were removed from culture media and pre-equilibrated for 40-60 seconds in MEBSS buffer. Uptake and retention experiments were initiated by immersion of coverslips in 60 mm glass Pyrex dishes containing loading solution consisting of buffer with 0.1-0.6 nM [^99m Tc-MIBI] (0.01-0.4 Ci/nmole; 25-100 uCi/ml). Preparations were removed at various times and rinsed three times in 25 ml volumes of ice-cold (2° C.) isotope-free buffer for 8 seconds each to clear extracellular spaces. Preparations and aliquots of the loading buffer and stock solutions were counted in a well-type sodium iodide gamma counter after which cell protein on each coverslip was extracted in 1% sodium dodecylsulfate with 10 mM sodium borate and assayed by the method of Lowry (Lowry, O. H., et al., J. Biol. Chem. 193:265-275 (1951)). Tc-MIBI binding to glass coverslips without cells was used as an estimate of non-specific adhesion to the substrate ([…] obtained with cellular preparations); this value was subtracted from total uptake determinations to derive the cell-associated counts. Use of generator equilibrium equations (Lamson, M. L., et al., i J. Nucl. Med. 16:639-641 (1975)) allowed calculation of absolute moles of Tc-MIBI in solutions and preparations. Results were therefore expressed as fmol cellular Tc-MIBI/mg protein per nM extracellular Tc-MIBI concentration. […]

[2] = Effect of tetraphenylborate on the biodistribution of Tc-MIBI in rats (Table 2); type: in vivo; conditions: for Blood level / Heart uptake / Kidney uptake / Liver uptake / Lung uptake: 15 minutes; for tissue retention of Tc-MIBI, all tissues: 15 min
Protocol: The results are expressed as percent injected dose per gram of tissue. […] For this series of experiments, 50 microliters of dimethylsulfoxide lacking or containing 7.2 mM TPB were injected directly into the jugular vein of anesthetized rats immediately prior to the injection of Tc-MIBI (150 microliters; 100 microCuries per 200 microliters).
After 15 minutes, the animal was sacrificed by thoracotomy, organs extracted and placed in test tubes and counted for radioactivity in a standard well-type gamma counter. Tissue wet weights were obtained by subtracting fare weights from total weight of test tubes plus tissue.
Results are expressed as mean ±SEM of three determinations each.

## [C-]#[N+]CC(C)(C)OC.[C-]#[N+]CC(C)(C)OC.[C-]#[N+]CC(C)(C)OC.[C-]#[N+]CC(C)(C)OC.[C-]#[N+]CC(C)(C)OC.[C-]#[N+]CC(C)(C)OC.[Tc] [Tc-MIBI, hexakis(methoxyisobutylisonitrile)technetium(I)]
[1]; +5×10^-6 M TPB, 5 seconds pre-incubation
  Tc-MIBI 2 min uptake: 20.6±0.43 fmol Tc-MIBI/mg protein per nM
[1]; +10^-7 M TPB, 5 seconds pre-incubation
  Tc-MIBI 2 min uptake: 3.37±0.57 fmol Tc-MIBI/mg protein per nM
[1]; control (no TPB)
  Tc-MIBI 2 min uptake: 1.23±0.15 fmol Tc-MIBI/mg protein per nM
[2]; +TPB
  Blood level: 0.06 ± 0.01 % ID/gm
  Heart uptake: 1.45 ± 0.11 % ID/gm
  Kidney uptake: 5.81 ± 0.74 % ID/gm
  Liver uptake: 0.76 ± 0.40 % ID/gm
  Lung uptake: 1.07 ± 0.15 % ID/gm
  tissue retention of Tc-MIBI, all tissues: 9.15 % ID per gram of total tissue
[2]; -TPB
  Blood level: 0.04 ± 0.01 % ID/gm
  Heart uptake: 1.92 ± 0.51 % ID/gm
  Kidney uptake: 3.38 ± 1.09 % ID/gm
  Liver uptake: 0.25 ± 0.15 % ID/gm
  Lung uptake: 0.45 ± 0.09 % ID/gm
  tissue retention of Tc-MIBI, all tissues: 6.04 % ID per gram of total tissue
